# Values of other authors in patent publication US8338382B2, “Method of treating impaired mitochondrial function” (priority 1997, dated 2012).
# Test system: depressed patients
# Settings: literature (Sabelli 2002, 2000)
structure (smiles),measurement,value
"NCCc1ccccc1 [PEA, 2-Phenylethylamine]",share of depressed patients in whom PEA is effective / controls depression,60%
same,"toxic effects, tolerance or abuse","no toxic effects, tolerance or abuse"
